In patent US9708314B2, “Heterocyclic amide compound” (NISSAN CHEMICAL INDUSTRIES, LTD., priority 2013, dated 2017):

Tests used:
Type in all cases: in vivo
[1] = tested on: Echinochloa oryzacola Vasing.; test: Test Example 1: herbicidal activity, application before weed generation in submerged conditions; settings: Application herbicide amount 320 g/ha; Seventeenth Table
Method in brief: (§1)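 Alluvial soil in Wagner pots flooded to 4 cm water depth; weed seeds sown and 2.5 leaf stage rice seedlings transplanted. Emulsion diluted in water applied to water surface on sowing day at stated g/ha. Greenhouse 25° C. to 30° C.; effects scored 0–5 by herbicidal ratio after three weeks.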

Monochoria vaginalis = test: as above; settings: Application herbicide amount 320 g/ha; Seventeenth Table
Method in brief: as §1

Scirpus juncoides = test: as above; settings: Application herbicide amount 320 g/ha; Seventeenth Table
Method in brief: as §1

[2] = tested on: transplanted Oryza sativa; test: Test Example 1: effect on crop, application before weed generation in submerged conditions; settings: Application herbicide amount 320 g/ha; Seventeenth Table
Method in brief: as §1

Abutilon theophrasti = test: Test Example 4: herbicidal effect by application to foliage (diluvial soil, plastic box)
Method in brief: (§2)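 Scores run from 0 (herbicidal ratio ≤5%) to 5 (≥90%, almost fully withered) and were assessed three weeks after foliar spraying. Seedlings had been raised for 14 days at 25-30° C in sterilized diluvial soil before treatment, with the emulsion diluted in water to the stated g/ha dose.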

Alopecurus myosuroides = test: as above
Method in brief: as §2

Amaranthus retroflexus = test: as above; settings: Application herbicide amount 320 g/ha; foliage application
Method in brief: as §2

Apera spica-venti. = test: as above
Method in brief: as §2

Avena fatua = test: as above
Method in brief: as §2

Chenopodium album = test: as above
Method in brief: as §2

Digitaria ciliaris = test: as above
Method in brief: as §2

[3] = tested on: Echinochloa crus-galli var. crus-galli; test: as above
Method in brief: as §2

Galium spurium = test: as above
Method in brief: as §2

Lolium multiflorum Lam. = test: as above
Method in brief: as §2

Setaria viridis = test: as above
Method in brief: as §2

Veronica persica = test: as above
Method in brief: as §2

[4] = tested on: Beta vulgaris ssp. vulgaris; test: Test Example 4: effect on crop by application to foliage (diluvial soil, plastic box)
Method in brief: as §2

Brassica campestris L. = test: as above
Method in brief: as §2

Glycine max = test: as above
Method in brief: as §2

Triticum aestivum = test: as above
Method in brief: as §2

Zea mays = test: as above
Method in brief: as §2

Stellaria media = test: Test Example 4: herbicidal effect by application to foliage (diluvial soil, plastic box); settings: application to foliage, application herbicide amount 320 g/ha
Method in brief: as §2

[5] = tested on: directly sowed Oryza sativa; test: Test Example 4: effect on crop by application to foliage (diluvial soil, plastic box); settings: application to foliage, application herbicide amount 320 g/ha
Method in brief: as §2

[6] = Application herbicide amount 320 g/ha, foliage application
[7] = application to foliage, application herbicide amount 320 g/ha

## Cc1nnc(NC(=O)c2ccc(C(F)(F)F)n3c(N(C)C(C)C)nnc23)o1 [1-132]
[1]
  A: Echinochloa oryzicola Vasing. (herbicidal effect grade): 5 (Herbicidal ratio of 90% or more (almost completely withered))
Monochoria vaginalis
  C: Monochoria vaginalis (herbicidal effect grade): 4 (Herbicidal ratio of 70% or more and less than 90%)
Scirpus juncoides
  B: Scirpus juncoides (herbicidal effect grade): 4 (Herbicidal ratio of 70% or more and less than 90%)
[2]
  a: transplanted Oryza sativa (effect on crop grade): 2 (Herbicidal ratio of 20% or more and less than 40%)
Abutilon theophrasti; [6]
  M (Abutilon theophrasti) herbicidal effect grade: 4 (Herbicidal ratio of 70% or more and less than 90%)
Alopecurus myosuroides; [6]
  J (Alopecurus myosuroides) herbicidal effect grade: 1 (Herbicidal ratio of 5% or more and less than 20%)
Amaranthus retroflexus
  N (Amaranthus retroflexus) herbicidal effect grade: 3 (Herbicidal ratio of 40% or more and less than 70%)
Apera spica-venti.; [6]
  L (Apera spica-venti.) herbicidal effect grade: 2 (Herbicidal ratio of 20% or more and less than 40%)
Avena fatua; [6]
  I (Avena fatua) herbicidal effect grade: 1 (Herbicidal ratio of 5% or more and less than 20%)
Chenopodium album; [6]
  O (Chenopodium album) herbicidal effect grade: 5 (Herbicidal ratio of 90% or more (almost completely withered))
Digitaria ciliaris; [6]
  F (Digitaria ciliaris) herbicidal effect grade: 4 (Herbicidal ratio of 70% or more and less than 90%)
[3]; [6]
  H (Echinochloa crus-galli var. crus-galli) herbicidal effect grade: 5 (Herbicidal ratio of 90% or more (almost completely withered))
Galium spurium; [6]
  Q (Galium spurium) herbicidal effect grade: 2 (Herbicidal ratio of 20% or more and less than 40%)
Lolium multiflorum Lam.; [6]
  K (Lolium multiflorum Lam.) herbicidal effect grade: 1 (Herbicidal ratio of 5% or more and less than 20%)
Setaria viridis; [6]
  G (Setaria viridis) herbicidal effect grade: 3 (Herbicidal ratio of 40% or more and less than 70%)
Veronica persica; [6]
  R (Veronica persica) herbicidal effect grade: 4 (Herbicidal ratio of 70% or more and less than 90%)
[4]; [6]
  f (Beta vulgaris ssp. vulgaris) effect on crop grade: 5 (Herbicidal ratio of 90% or more (almost completely withered))
Brassica campestris L.; [6]
  g (Brassica campestris L.) effect on crop grade: 4 (Herbicidal ratio of 70% or more and less than 90%)
Glycine max; [6]
  d (Glycine max) effect on crop grade: 3 (Herbicidal ratio of 40% or more and less than 70%)
Triticum aestivum; [6]
  e (Triticum aestivum) effect on crop grade: 1 (Herbicidal ratio of 5% or more and less than 20%)
Zea mays; [6]
  c (Zea mays) effect on crop grade: 2 (Herbicidal ratio of 20% or more and less than 40%)

## COC1CCC(c2nnc3c(C(=O)Nc4nnc(C)o4)ccc(C(F)(F)F)n23)CC1 (stereo not shown) [1-169]
[1]
  A: Echinochloa oryzicola Vasing. (herbicidal effect grade): 5 (Herbicidal ratio of 90% or more (almost completely withered))
Monochoria vaginalis
  C: Monochoria vaginalis (herbicidal effect grade): 4 (Herbicidal ratio of 70% or more and less than 90%)
Scirpus juncoides
  B: Scirpus juncoides (herbicidal effect grade): 4 (Herbicidal ratio of 70% or more and less than 90%)
[2]
  a: transplanted Oryza sativa (effect on crop grade): 0 (Herbicidal ratio of 5% or less (almost no effect))
Abutilon theophrasti; [7]
  M: herbicidal effect on Abutilon theophrasti: 3 (Herbicidal ratio of 40% or more and less than 70%)
Alopecurus myosuroides; [7]
  J: herbicidal effect on Alopecurus myosuroides: 1 (Herbicidal ratio of 5% or more and less than 20%)
Apera spica-venti.; [7]
  L: herbicidal effect on Apera spica-venti.: 1 (Herbicidal ratio of 5% or more and less than 20%)
Avena fatua; [7]
  I: herbicidal effect on Avena fatua: 1 (Herbicidal ratio of 5% or more and less than 20%)
Chenopodium album; [7]
  O: herbicidal effect on Chenopodium album: 5 (Herbicidal ratio of 90% or more (almost completely withered))
Digitaria ciliaris; [7]
  F: herbicidal effect on Digitaria ciliaris: 4 (Herbicidal ratio of 70% or more and less than 90%)
[3]; [7]
  H: herbicidal effect on Echinochloa crus-galli var. crus-galli: 5 (Herbicidal ratio of 90% or more (almost completely withered))
Galium spurium; [7]
  Q: herbicidal effect on Galium spurium: 1 (Herbicidal ratio of 5% or more and less than 20%)
Lolium multiflorum Lam.; [7]
  K: herbicidal effect on Lolium multiflorum Lam.: 1 (Herbicidal ratio of 5% or more and less than 20%)
Setaria viridis; [7]
  G: herbicidal effect on Setaria viridis: 3 (Herbicidal ratio of 40% or more and less than 70%)
Stellaria media
  P: herbicidal effect on Stellaria media: 5 (Herbicidal ratio of 90% or more (almost completely withered))
Veronica persica; [7]
  R: herbicidal effect on Veronica persica: 4 (Herbicidal ratio of 70% or more and less than 90%)
[4]; [7]
  f: effect on crop, Beta vulgaris ssp. vulgaris: 5 (Herbicidal ratio of 90% or more (almost completely withered))
Brassica campestris L.; [7]
  g: effect on crop, Brassica campestris L.: 0 (Herbicidal ratio of 5% or less (almost no effect))
Glycine max; [7]
  d: effect on crop, Glycine max: 5 (Herbicidal ratio of 90% or more (almost completely withered))
Triticum aestivum; [7]
  e: effect on crop, Triticum aestivum: 1 (Herbicidal ratio of 5% or more and less than 20%)
Zea mays; [7]
  c: effect on crop, Zea mays: 1 (Herbicidal ratio of 5% or more and less than 20%)
[5]
  b: effect on crop, directly sowed Oryza sativa: 0 (Herbicidal ratio of 5% or less (almost no effect))
